Assay results as given in US20210255193A1, “LYSINE REACTIVE PROBES AND USES THEREOF” (The Scripps Research Institute, priority 2017, published 2021).

Legend:
[1] = molecular target: T1, EHD1 EH domain-containing protein 1 (Homo sapiens, UniProt Q9H4M9); assay: competitive isoTOP-ABPP; format: binding
T1 construct: endogenous in cells; host or cells: MDA-MB-231 (soluble fraction of lysate)
T1 sequence (Q9H4M9 1-534): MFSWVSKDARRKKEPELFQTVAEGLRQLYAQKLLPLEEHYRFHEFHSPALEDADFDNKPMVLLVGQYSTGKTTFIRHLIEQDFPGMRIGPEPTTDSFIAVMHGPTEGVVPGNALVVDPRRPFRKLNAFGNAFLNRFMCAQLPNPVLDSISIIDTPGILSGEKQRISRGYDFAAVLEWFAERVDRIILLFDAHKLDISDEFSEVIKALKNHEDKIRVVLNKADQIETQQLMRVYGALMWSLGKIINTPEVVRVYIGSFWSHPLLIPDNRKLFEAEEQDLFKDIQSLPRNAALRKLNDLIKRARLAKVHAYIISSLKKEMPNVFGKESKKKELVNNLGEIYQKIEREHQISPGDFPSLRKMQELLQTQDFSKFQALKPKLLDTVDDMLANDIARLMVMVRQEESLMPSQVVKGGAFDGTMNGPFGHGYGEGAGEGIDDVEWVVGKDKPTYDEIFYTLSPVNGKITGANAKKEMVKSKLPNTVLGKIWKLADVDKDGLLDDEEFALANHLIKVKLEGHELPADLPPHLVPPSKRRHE
Method in brief: (§1)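 Lysate + fragment (50 μM activated ester / 100 μM guanidinylating agent) or DMSO → 0.1 mM STP-alkyne, 1 h, RT → CuAAC to TEV tags (compound light, DMSO heavy) → LC-MS. R = heavy/light MS1 area; liganded lysine if R≥4.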

[2] = molecular target: T2, OAT Ornithine aminotransferase, mitochondrial (Homo sapiens, UniProt P04181); assay: competitive isoTOP-ABPP; format: binding; conditions: for isoTOP-ABPP reactivity ratio at lysine P04181_K66: 50 uM, 231 sol, in vitro
T2 construct: isoTOP-ABPP experiments performed in cell lysates (in vitro); endogenous in cells; host or cells: MDA-MB-231 soluble lysate
T2 sequence (P04181 26-439): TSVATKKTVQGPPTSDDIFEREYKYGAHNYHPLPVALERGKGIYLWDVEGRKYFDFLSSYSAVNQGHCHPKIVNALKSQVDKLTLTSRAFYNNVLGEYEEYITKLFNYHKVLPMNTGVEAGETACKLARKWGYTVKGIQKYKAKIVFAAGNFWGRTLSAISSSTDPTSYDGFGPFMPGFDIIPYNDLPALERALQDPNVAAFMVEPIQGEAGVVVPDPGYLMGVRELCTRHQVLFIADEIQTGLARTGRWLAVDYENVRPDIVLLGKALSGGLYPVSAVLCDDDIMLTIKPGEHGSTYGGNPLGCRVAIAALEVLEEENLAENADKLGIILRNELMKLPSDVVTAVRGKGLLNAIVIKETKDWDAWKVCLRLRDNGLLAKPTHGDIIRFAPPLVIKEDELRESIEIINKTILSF
Method in brief: as §1

O=C(CCc1cn(-c2ccccc2)nc1-c1ccccc1)Oc1c(F)c(F)c(F)c(F)c1F [fragment 19, Pentafluorophenyl 3-(1,3-diphenyl-1H-pyrazol-4-yl)propanoate]
R value (DMSO/fragment) for probe 1 labeling ([1]; Q9H4M9_K511, 50 uM, 231 sol, in vitro): 0.8

O=C(Oc1c(F)c(F)c(F)c(F)c1F)C1CCN(C(=O)OCc2ccccc2)CC1 [fragment 24, 1-Benzyl 4-(pentafluorophenyl) piperidine-1,4-dicarboxylate]
isoTOP-ABPP reactivity ratio at lysine P04181_K66 [2]: 0.6

O=C(Oc1ccc([N+](=O)[O-])cc1[N+](=O)[O-])C(c1ccccc1)c1ccccc1 [fragment 30, 2,4-Dinitrophenyl 2,2-diphenylacetate]
isoTOP-ABPP reactivity ratio at lysine Q9H4M9_K511 ([1]; 50 uM, 231 sol, in vitro): 0.9

Cn1cc(CC(=O)Oc2ccc([N+](=O)[O-])cc2[N+](=O)[O-])c2ccccc21 [fragment 32, 2,4-Dinitrophenyl 2-(1-methyl-1H-indol-3-yl)acetate]
isoTOP-ABPP reactivity ratio at lysine Q9H4M9_K511 ([1]; 50 uM, 231 sol, in vitro): 1.2 | isoTOP-ABPP reactivity ratio at lysine P04181_K66 [2]: 9.3

COc1cc(CCC(=O)Oc2ccc([N+](=O)[O-])cc2[N+](=O)[O-])cc(OC)c1OC [fragment 33, 2,4-Dinitrophenyl 3-(3,4,5-trimethoxyphenyl)propanoate]
isoTOP-ABPP reactivity ratio at lysine P04181_K66 [2]: 1.0

CC(=O)Oc1ccc([N+](=O)[O-])cc1[N+](=O)[O-] [fragment 43, 2,4-Dinitrophenyl acetate]
isoTOP-ABPP ratio (R) at liganded lysine Q9H4M9_K511 ([1]; 50 uM, in vitro, sol, 231): 20.0

O=C(Oc1c(F)c(F)c(C(F)(F)F)c(F)c1F)c1cc(C(F)(F)F)cc(C(F)(F)F)c1 [fragment 47, 2,3,5,6-Tetrafluoro-4-(trifluoromethyl)phenyl 3,5-bis(trifluoromethyl)benzoate]
isoTOP-ABPP ratio, lysine Q9H4M9_K511 ([1]; 50 uM_231_sol_in vitro): 20.0

CC(C)(C)OC(=O)N=C(NC(=O)OC(C)(C)C)n1cccn1 [fragment 50, reference compound]
isoTOP-ABPP ratio, lysine P04181_K66 ([2]; 100 uM_231_sol_in vitro): 9.9
